Assays:
[1] = tested on: Cotton plants of the cultivar "Carmen"; assay: Leaf drop effect on cotton plants after spray application (greenhouse); format: in vivo; conditions: 1 l/ha Actirob B added
Experimental: (§1) A water application rate of 300 l/ha was initially charged. The components herbicide and adjuvant were then added with stirring at the application rates and in the manner stated in the tables, such that a homogeneous spray liquor was formed. Here, the active ingredients were employed as suspension concentrates (thidiazuron as ®Escalate liquid SC500. Metribuzin as ®Sencor SC 80, thidiazuron+diuron as ®Dropp Ultra SC180) from Bayer CropScience AG. The adjuvant used was ®Actirob B (Novance).
(§2) Cotton seeds of the cultivar “Carmen” were sown at a depth of 1 cm and cultivated in a greenhouse cabin (20000-50000 LUX light: 14 hrs/day; temperature at night: 22° C., during the day: 30° C., rel. atmospheric humidity at night: 65%, during the day 50%) until they had reached the 6-8 leaf stage.
(§3) The plants were treated on a laboratory spray track with spray liquors of thidiazuron and thidiazuron with combination partners. The water application rate for the spray application was 300 l/ha. After the treatment, the plants were returned to the greenhouse cabin.
4 and 8 days after the application, the leaf drop effect was evaluated (leaf drop %): • 0%=no noticeable effect compared to untreated plants; • 100%=all leaves have dropped off.

[2] = tested on: Cotton plants of the cultivar "Carmen"; assay: Regrowth of cotton plants, by weighing newly formed leaf material; format: in vivo; conditions: 2 weeks after application, 1 l/ha Actirob B added, repeated twice
Experimental: as §1, §2, §3
2 weeks after the application, the regrowth of the plants was assessed by weighing the newly formed leaf material. The tabular values express the regrowth as a percentage of the untreated control.

[3] = Test 1, dose 30 g of a.i./ha, 0%=no effect, 100%=all leaves dropped

| SMILES | Leaf drop [%] 4 days after application ([1]; Test 1, dose 15 g of a.i./ha) [%] | Leaf drop [%] 8 days after application ([1]; Test 1, dose 15 g of a.i./ha) [%] | Leaf drop [%] 8 days after application ([1]; Test 1, dose 30 g of a.i./ha) [%] | Leaf drop [%] 4 days after application [1, 3] [%] | Leaf drop [%] 4 days after application ([1]; Test 2, dose 15 g of a.i./ha) [%] | Leaf drop [%] 8 days after application ([1]; Test 2, dose 15 g of a.i./ha) [%] | Leaf drop [%] 4 days after application ([1]; Test 2, dose 30 g of a.i./ha) [%] | Leaf drop [%] 8 days after application ([1]; Test 2, dose 30 g of a.i./ha) [%] | Regrowth [%] as a percentage of the untreated control ([2]; Table 3, dose 15 g of a.i./ha) [%] | Regrowth [%] as a percentage of the untreated control ([2]; Table 3, dose 30 g of a.i./ha) | Regrowth [%] as a percentage of the untreated control ([2]; Table 4, dose 15 g of a.i./ha) [%] | Regrowth [%] as a percentage of the untreated control ([2]; Table 4, dose 30 g of a.i./ha) [%] |
| --- | --- | --- | --- | --- | --- | --- | --- | --- | --- | --- | --- | --- |
| CSc1nnc(C(C)(C)C)c(=O)n1N [metribuzin] | 0 | 0 | 0 | 0 | 0 | 0 | 0 | 0 | 0 | 0% | 0 | 0 |
| O=C(Nc1ccccc1)Nc1cnns1 [thidiazuron] | – | – | 63 | 0 | – | – | – | – | – | +60% | – | – |

— patent publication US8383550B2, “Defoliant” (Bayer Cropscience AG, priority 2009, dated 2013)
